Results as given in paper PMC8360061, “Search for the Active Ingredients from a 2‐Aminothiazole DMSO Stock Solution with Antimalarial Activity” (Chemmedchem, 2021).
“Also recorded” adds a separate entry of the source.

Experiment: Decomposition study of stock solutions (HRMS, NMR)
Format: physicochemical
Experimental: Firstly, we performed a temperature‐dependent decomposition study of compound 1 at 10 mM concentration in DMSO at room temperature (RT), +4 °C and −20 °C (SI, Section 2.3). After seven days, 64 % of the sample stored at RT had decomposed (SI, Table S1). Besides visual inspection of the colour changes of the test sample (see Table 2), the decomposition was monitored by HRMS and NMR spectroscopy. […] Furthermore, all three samples were tested for their inhibitory activity against PfIspE after the incubation period. […] This fact correlated with the degree of chemical transformation of compound 1 (Table S1). In the IspE assay, the activity of the target enzyme is coupled to the oxidation of NADH (which can be followed spectrophotometrically at 340 nm) via a cascade of the auxiliary enzymes pyruvate kinase and lactate dehydrogenase (PK/LDH).[10] Therefore, we next confirmed, whether the effects observed in the IspE assay are due to inhibition of the target enzyme or of the auxiliary enzymes. Three samples of compound 1 were tested in PK/LDH assay (Table 2).
Secondly, we analysed if spontaneous chemical transformation of compound 1 may depend on the solvent used for the preparation of its stock solutions. We incubated 10 mM stock preparations of compound 1 in DMSO, acetonitrile (ACN) and methanol (MeOH) at RT. Aliquots were taken during 16 days of incubation and tested against the enzyme PfIspE (Table 3). […] For further decomposition incubation of compound 1, only DMSO was used as solvent.
2.3 Temperature-Dependent Study
Compound 1 was dissolved in DMSO to afford 10 mM stock solution, in the scale of 3.65 mg in 1 mL. Three aliquots were prepared and one each was stored inside a light -protecting box at different temperatures: room temperature (RT), +4 °C and –20 °C. Samples were only taken to RT for the minimum time required for sampling. Samples were further d iluted with acetonitrile to 10 µM (1:1000) for HRMS analysis. For calibration, a fresh stock solution of the compound 1 was prepared shortly before the analysis. The concentration range used for the calibration was from 10 µM to 20 nM, including 10 samples with 1:1 dilutions starting from the highest concentration (Appendix I). In all of the calibration points and samples, diphenhydramine ( m/z: 256.16907 [M+H]+) was included as an internal standard at the concentration of 500 nM. The results were analysed using Thermo Xcalibur Quan Browser. Similarly, three NMR samples of compound 1 were prepared in DMSO-d6 and each stored at different temperatures; RT, +4 °C and –20 °C, (Figure S8).
Table S1. Summary of the decomposition of compound 1 at different temperatures with the corresponding enzymatic activities measured after three months.
The Percentage of Compound 1 Left After Degradation after 3 months of decomposition[b] Temperature Day 7 1 month 2 months PfIspE IC50 EcIspE IC50 PK/LDH IC50 […]
[a] [b] Errors given as formal standard error. n.d.: not determined, PK/LDH: pyruvate kinase and lactate dehydrogenase, Pf: Plasmodium falciparum, Ec: Escherichia coli.
Figure S7. The HRMS recorded for the samples submitted to the enzyme assay after 3 months of decomposition with the corresponding colour differences. […]
2.4 Solvent-Dependent Study
As in the Section 2.3, stock solutions of compound 1 were prepared in DMSO, ACN and MeOH and stored at RT for 16 days in a box protected from light . Samples were collected during this time and the enzymatic activity was analysed for them as in main text, Table […]
compound 1 for ACN or MeOH was detectible (Figures S11–12). Similarly, the old samples of compound 1 used for enzyme and cell assays were analysed with HRMS (Figure S13). Additionally, NMR sample in MeOH was prepared and measured over time while stored at RT. As a follow-up experiment, the stability of compound 1 was determined for its 10 mM stock solution in Tris-HCl (pH 7.6) with and without 5% DMSO and Cyrene™ with HRMS (Figure S16–18). […]

CCn1c(C)cc(-c2csc(Nc3ccccc3C(F)(F)F)n2)c1C [Compound 1]
Degradation after 2 months (10 mM in DMSO, +4 °C): 79% | Percentage of Compound 1 Left After Degradation (10 mM in DMSO, +4 °C, 1 month): 48% | Percentage of Compound 1 Left After Degradation (10 mM in DMSO, +4 °C, 2 months): 21% | Percentage of Compound 1 Left After Degradation (10 mM in DMSO, +4 °C, Day 7): 96% | Degradation after 2 months (10 mM in DMSO, RT): 100% | decomposition after two weeks (in words) (10 mM in DMSO, RT): fully decomposed | share of sample decomposed after seven days (10 mM in DMSO, RT): 64% | Percentage of Compound 1 Left After Degradation (10 mM in DMSO, RT, 1 month): 1% | Percentage of Compound 1 Left After Degradation (10 mM in DMSO, RT, 2 months): 0% | Percentage of Compound 1 Left After Degradation (10 mM in DMSO, RT, Day 7): 36% | Degradation after 2 months (10 mM in DMSO, −20 °C): 18% | Percentage of Compound 1 Left After Degradation (10 mM in DMSO, −20 °C, 1 month): 91% | Percentage of Compound 1 Left After Degradation (10 mM in DMSO, −20 °C, 2 months): 82% | Percentage of Compound 1 Left After Degradation (10 mM in DMSO, −20 °C, Day 7): 96% | decomposition at −20 °C (in words) (10 mM in DMSO, −20 °C, up to two months): decomposition hardly occurs; also recorded: only minimal decomposition | decomposition in Cyrene (HRMS, in words) (10 mM stock in Cyrene, RT, after one day): clear decomposition | decomposition in ACN (HRMS, in words) (stock solution in ACN at RT for 16 days): no decomposition | decomposition in MeOH (HRMS, in words) (stock solution in MeOH at RT for 16 days): no decomposition
